According to US20020061836A1, “Methods for altering SXR activation using peptide mimetic HIV protease inhibitor SXR ligands” (priority 2000, published 2002):

Key:
[1] = target: T1, human SXR ligand binding domain (Homo sapiens, UniProt O75469); assay: Gal-L-SXR (Gal-SXR) Gal4 reporter transient transfection assay in CV-1 cells
T1 sequence (O75469 107-434 limits assumed): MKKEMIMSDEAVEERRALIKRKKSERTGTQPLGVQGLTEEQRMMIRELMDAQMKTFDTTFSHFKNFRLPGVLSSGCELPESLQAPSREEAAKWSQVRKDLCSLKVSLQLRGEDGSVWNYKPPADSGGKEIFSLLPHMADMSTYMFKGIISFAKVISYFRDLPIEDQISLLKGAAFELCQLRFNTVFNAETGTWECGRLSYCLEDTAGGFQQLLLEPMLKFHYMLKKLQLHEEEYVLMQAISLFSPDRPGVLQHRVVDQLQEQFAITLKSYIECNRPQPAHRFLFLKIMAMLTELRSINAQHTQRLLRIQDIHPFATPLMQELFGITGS
Source text: Use of a standard model heterologous cell system to reconstitute SXR agonist and antagonist responsiveness allows SXR activity to be monitored in the absence of the metabolic events which may obscure the process being tested. Any suitable heterologous cell system may be used to test the activation of potential or known SXR nuclear receptor ligands, as long as the cells are capable of being transiently transfected with the appropriate DNA which expresses receptors, reporter genes, response elements, and the like. Cells which constitutively express one or more of the necessary genes may be used as well. Cell systems that are suitable for the transient expression of mammalian genes and which are amenable to maintenance in culture are well known to those skilled in the art. […] Suitable reporter gene constructs are well known to skilled workers in the fields of biochemistry and molecular biology. Activity of the reporter gene can be conveniently normalized to the internal control and the data plotted as fold activation relative to untreated cells.
The Gal4 reporter activity was normalized to the internal β-galactosidase control and the data plotted as fold activation relative to untreated cells. All transfections contained the Gal4 reporter and a β-galactosidase expression vector as an internal control.
Izbicka et al., Ann. Oncol.
Gal-PXR containing the ligand binding domain of mouse PXR (#AF031814) was obtained from Bruce Blumberg.
Transient Transffection Assays—CV-1 cells were grown and transfected as described.

human VDR = target: T2, human VDR (Homo sapiens, UniProt P11473); assay: Nuclear receptor specificity transfection assay; type: cell-based; conditions: 10 μM paclitaxel
T2 construct: expressed in transfected cells; host or cells: CV-1
T2 sequence (P11473 whole entry): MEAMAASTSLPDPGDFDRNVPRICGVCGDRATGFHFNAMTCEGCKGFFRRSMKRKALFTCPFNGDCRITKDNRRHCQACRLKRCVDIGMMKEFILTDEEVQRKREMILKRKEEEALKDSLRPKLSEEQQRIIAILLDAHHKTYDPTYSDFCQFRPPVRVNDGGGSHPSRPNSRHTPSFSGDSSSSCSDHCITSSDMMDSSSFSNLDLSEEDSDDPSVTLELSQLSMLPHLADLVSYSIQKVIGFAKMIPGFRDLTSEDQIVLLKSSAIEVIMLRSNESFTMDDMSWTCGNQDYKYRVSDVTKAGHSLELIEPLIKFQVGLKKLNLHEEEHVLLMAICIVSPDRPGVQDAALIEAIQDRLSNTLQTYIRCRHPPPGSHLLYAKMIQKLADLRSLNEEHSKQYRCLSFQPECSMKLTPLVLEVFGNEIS

human LXRα = target: T3, human LXRα (Homo sapiens, UniProt Q13133); assay: Nuclear receptor specificity transfection assay; type: cell-based; conditions: 10 μM paclitaxel
T3 construct: expressed in transfected cells; host or cells: CV-1
T3 sequence (Q13133 1-447): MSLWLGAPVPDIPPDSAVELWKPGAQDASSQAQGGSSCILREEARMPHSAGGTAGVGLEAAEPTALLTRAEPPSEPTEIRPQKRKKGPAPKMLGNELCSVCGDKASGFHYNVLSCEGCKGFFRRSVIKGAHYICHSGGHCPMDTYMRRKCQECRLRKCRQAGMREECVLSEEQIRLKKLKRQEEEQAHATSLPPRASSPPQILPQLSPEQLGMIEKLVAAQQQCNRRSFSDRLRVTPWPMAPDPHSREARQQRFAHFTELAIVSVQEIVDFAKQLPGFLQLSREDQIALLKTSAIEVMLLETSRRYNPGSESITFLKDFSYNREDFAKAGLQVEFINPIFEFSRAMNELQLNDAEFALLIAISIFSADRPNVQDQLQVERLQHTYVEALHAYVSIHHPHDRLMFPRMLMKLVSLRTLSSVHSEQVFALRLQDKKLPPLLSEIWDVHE

CYP3A4 and CYP2C8 = conditions: read-out: Km for degradation of paclitaxel by CYP3A4 and CYP2C8; cited from earlier work
CV-1 cells = assay: Potential cytotoxic effects at the concentrations and treatment times used; conditions: at the indicated concentrations and treatment times

- EC50 [1]: ~5 µM
- effect on VDR reporter activity (human VDR): no effect
- effect on LXRα reporter activity (human LXRα): no effect
SMILES: CC(=O)O[C@H]1C(=O)[C@@]2(C)[C@H]([C@H](OC(=O)c3ccccc3)[C@]3(O)C[C@H](OC(=O)[C@H](O)[C@@H](NC(=O)c4ccccc4)c4ccccc4)C(C)=C1C3(C)C)[C@]1(OC(C)=O)CO[C@@H]1C[C@@H]2O [paclitaxel]
- Km (CYP3A4 and CYP2C8): ~10 µM
- potential cytotoxic effects (CV-1 cells): minimal
